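Method: 48-hour compound exposure of cells in 96-well plates, five concentrations, linear interpolation of endpoints. At the TGI there is no net growth.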
Tests used:
Assay in all cases: NCI tumour cell line growth inhibition, 48 h
DU-145 prostate = tested on: DU-145 prostate
A549 NSCLC = tested on: A549 NSCLC
PC-3 prostate = tested on: PC-3 prostate
MDA-N = tested on: MDA-N
HCC-2998 colon = tested on: HCC-2998 colon
OVCAR-3 ovarian = tested on: OVCAR-3 ovarian
COLO 205 colon = tested on: COLO 205 colon
UO-31 renal = tested on: UO-31 renal
IGROV1 ovarian = tested on: IGROV1 ovarian
CCRF-CEM leukemia = tested on: CCRF-CEM leukemia
HL-60(TB) leukemia = tested on: HL-60(TB) leukemia
786-0 renal = tested on: 786-0 renal
HOP-62 NSCLC = tested on: HOP-62 NSCLC
MCF7 breast = tested on: MCF7 breast
RXF 393 renal = tested on: RXF 393 renal
CAKI-1 renal = tested on: CAKI-1 renal
NCI-H460 lung = tested on: NCI-H460 lung
EKVX NSCLC = tested on: EKVX NSCLC
TK-10 renal = tested on: TK-10 renal
BT-549 breast = tested on: BT-549 breast
LOX IMVI melanoma = tested on: LOX IMVI melanoma
HCT-116 colon = tested on: HCT-116 colon
SK-OV-3 ovarian = tested on: SK-OV-3 ovarian
RPMI-8226 leukemia = tested on: RPMI-8226 leukemia
ACHN renal = tested on: ACHN renal
OVCAR-5 ovarian = tested on: OVCAR-5 ovarian
T-47D breast = tested on: T-47D breast
NCI-H226 lung = tested on: NCI-H226 lung
MDA-MB-231 breast = tested on: MDA-MB-231 breast
SF-268 CNS = tested on: SF-268 CNS
SK-MEL-28 melanoma = tested on: SK-MEL-28 melanoma
UACC-257 melanoma = tested on: UACC-257 melanoma
SK-MEL-2 melanoma = tested on: SK-MEL-2 melanoma
NCI-H522 lung = tested on: NCI-H522 lung
M14 melanoma = tested on: M14 melanoma
OVCAR-4 ovarian = tested on: OVCAR-4 ovarian
SN12C renal = tested on: SN12C renal
SNB-75 CNS = tested on: SNB-75 CNS
HCT-15 colon = tested on: HCT-15 colon
OVCAR-8 ovarian = tested on: OVCAR-8 ovarian
U251 CNS = tested on: U251 CNS
K-562 leukemia = tested on: K-562 leukemia
NCI-H23 lung = tested on: NCI-H23 lung
NCI/ADR-RES ovarian = tested on: NCI/ADR-RES ovarian
HOP-92 NSCLC = tested on: HOP-92 NSCLC
UACC-62 melanoma = tested on: UACC-62 melanoma
MALME-3M melanoma = tested on: MALME-3M melanoma
SR leukemia = tested on: SR leukemia
SK-MEL-5 melanoma = tested on: SK-MEL-5 melanoma
SF-539 CNS = tested on: SF-539 CNS
HT29 colon = tested on: HT29 colon
SNB-19 CNS = tested on: SNB-19 CNS
MOLT-4 leukemia = tested on: MOLT-4 leukemia
SF-295 CNS = tested on: SF-295 CNS
MDA-MB-435 = tested on: MDA-MB-435
KM12 colon = tested on: KM12 colon
A498 renal = tested on: A498 renal
HS 578T breast = tested on: HS 578T breast
SW-620 colon = tested on: SW-620 colon

SMILES: COc1cc2cc(C(=O)N3CC(COS(C)(=O)=O)c4c3cc(N)c3ccccc43)[nH]c2c(OC)c1OC (stereo not given)
- TGI (DU-145 prostate): < 0.01 µM
- TGI (A549 NSCLC): > 100 µM
- TGI (PC-3 prostate): 30.5 µM
- TGI (MDA-N): > 100 µM
- TGI (HCC-2998 colon): < 0.01 µM
- TGI (OVCAR-3 ovarian): > 100 µM
- TGI (COLO 205 colon): > 100 µM
- TGI (UO-31 renal): > 100 µM
- TGI (IGROV1 ovarian): > 100 µM
- TGI (CCRF-CEM leukemia): > 100 µM
- TGI (HL-60(TB) leukemia): > 100 µM
- TGI (786-0 renal): > 100 µM
- TGI (HOP-62 NSCLC): > 100 µM
- TGI (MCF7 breast): > 100 µM
- TGI (RXF 393 renal): 0.0377 µM
- TGI (CAKI-1 renal): 0.0928 µM
- TGI (NCI-H460 lung): > 100 µM
- TGI (EKVX NSCLC): < 0.01 µM
- TGI (TK-10 renal): < 0.01 µM
- TGI (BT-549 breast): 0.25 µM
- TGI (LOX IMVI melanoma): > 100 µM
- TGI (HCT-116 colon): > 100 µM
- TGI (SK-OV-3 ovarian): 1.28 µM
- TGI (RPMI-8226 leukemia): > 100 µM
- TGI (ACHN renal): < 0.01 µM
- TGI (OVCAR-5 ovarian): > 100 µM
- TGI (T-47D breast): > 100 µM
- TGI (NCI-H226 lung): 0.228 µM
- TGI (MDA-MB-231 breast): < 0.01 µM
- TGI (SF-268 CNS): > 100 µM
- TGI (SK-MEL-28 melanoma): > 100 µM
- TGI (UACC-257 melanoma): > 100 µM
- TGI (SK-MEL-2 melanoma): > 100 µM

SMILES: O=C1Cc2c([nH]c3ccc(Br)cc23)-c2ccccc2N1
- TGI (DU-145 prostate): > 100 µM
- TGI (NCI-H522 lung): > 100 µM
- TGI (A549 NSCLC): > 100 µM
- TGI (PC-3 prostate): > 100 µM
- TGI (MDA-N): > 100 µM
- TGI (HCC-2998 colon): > 100 µM
- TGI (M14 melanoma): > 100 µM
- TGI (OVCAR-3 ovarian): > 100 µM
- TGI (COLO 205 colon): > 100 µM
- TGI (OVCAR-4 ovarian): > 100 µM
- TGI (UO-31 renal): > 100 µM
- TGI (SN12C renal): > 100 µM
- TGI (IGROV1 ovarian): > 100 µM
- TGI (SNB-75 CNS): > 100 µM
- TGI (CCRF-CEM leukemia): > 100 µM
- TGI (HL-60(TB) leukemia): > 53.8 µM
- TGI (786-0 renal): > 100 µM
- TGI (HCT-15 colon): > 100 µM
- TGI (OVCAR-8 ovarian): > 100 µM
- TGI (U251 CNS): > 100 µM
- TGI (HOP-62 NSCLC): > 100 µM
- TGI (RXF 393 renal): > 100 µM
- TGI (CAKI-1 renal): > 100 µM
- TGI (K-562 leukemia): > 100 µM
- TGI (NCI-H23 lung): > 100 µM
- TGI (NCI-H460 lung): > 100 µM
- TGI (NCI/ADR-RES ovarian): > 100 µM
- TGI (EKVX NSCLC): > 100 µM
- TGI (HOP-92 NSCLC): > 100 µM
- TGI (TK-10 renal): > 100 µM
- TGI (UACC-62 melanoma): > 100 µM
- TGI (MALME-3M melanoma): > 100 µM
- TGI (SR leukemia): > 100 µM
- TGI (SK-MEL-5 melanoma): > 100 µM
- TGI (LOX IMVI melanoma): > 100 µM
- TGI (SF-539 CNS): > 27.8 µM
- TGI (SK-OV-3 ovarian): > 100 µM
- TGI (RPMI-8226 leukemia): > 100 µM
- TGI (ACHN renal): > 100 µM
- TGI (HT29 colon): > 100 µM
- TGI (OVCAR-5 ovarian): > 100 µM
- TGI (SNB-19 CNS): > 100 µM
- TGI (T-47D breast): > 100 µM
- TGI (MOLT-4 leukemia): > 100 µM
- TGI (NCI-H226 lung): > 100 µM
- TGI (MDA-MB-231 breast): > 100 µM
- TGI (SF-268 CNS): > 100 µM
- TGI (SF-295 CNS): > 100 µM
- TGI (SK-MEL-28 melanoma): > 100 µM
- TGI (MDA-MB-435): > 100 µM
- TGI (UACC-257 melanoma): > 100 µM
- TGI (KM12 colon): > 100 µM
- TGI (A498 renal): > 100 µM
- TGI (SK-MEL-2 melanoma): > 100 µM
- TGI (HS 578T breast): > 100 µM

SMILES: C1CCC(OC2CSC2)OC1 (stereo not given)
- TGI (DU-145 prostate): > 100 µM
- TGI (NCI-H522 lung): > 100 µM
- TGI (A549 NSCLC): > 100 µM
- TGI (PC-3 prostate): > 100 µM
- TGI (MDA-N): > 100 µM
- TGI (HCC-2998 colon): > 100 µM
- TGI (M14 melanoma): > 100 µM
- TGI (OVCAR-3 ovarian): > 100 µM
- TGI (COLO 205 colon): > 100 µM
- TGI (OVCAR-4 ovarian): > 100 µM
- TGI (UO-31 renal): > 100 µM
- TGI (SN12C renal): > 100 µM
- TGI (SNB-75 CNS): > 100 µM
- TGI (CCRF-CEM leukemia): > 100 µM
- TGI (HCT-15 colon): > 100 µM
- TGI (OVCAR-8 ovarian): > 100 µM
- TGI (U251 CNS): > 100 µM
- TGI (MCF7 breast): > 100 µM
- TGI (RXF 393 renal): > 100 µM
- TGI (K-562 leukemia): > 100 µM
- TGI (SW-620 colon): > 100 µM
- TGI (NCI-H23 lung): > 100 µM
- TGI (NCI-H460 lung): > 100 µM
- TGI (NCI/ADR-RES ovarian): > 100 µM
- TGI (HOP-92 NSCLC): > 100 µM
- TGI (TK-10 renal): > 100 µM
- TGI (SR leukemia): > 100 µM
- TGI (SK-MEL-5 melanoma): > 100 µM
- TGI (LOX IMVI melanoma): > 100 µM
- TGI (HCT-116 colon): > 100 µM
- TGI (SK-OV-3 ovarian): > 100 µM
- TGI (ACHN renal): > 100 µM
- TGI (HT29 colon): > 100 µM
- TGI (SNB-19 CNS): > 100 µM
- TGI (T-47D breast): > 100 µM
- TGI (MOLT-4 leukemia): > 100 µM
- TGI (NCI-H226 lung): > 100 µM
- TGI (MDA-MB-231 breast): > 100 µM
- TGI (SF-268 CNS): > 100 µM
- TGI (SF-295 CNS): > 100 µM
- TGI (SK-MEL-28 melanoma): > 100 µM
- TGI (MDA-MB-435): > 100 µM
- TGI (UACC-257 melanoma): > 100 µM
- TGI (KM12 colon): > 100 µM
- TGI (A498 renal): > 100 µM
- TGI (HS 578T breast): > 100 µM
